From PMC2792043 (PLoS ONE, 2009)
Converted amounts (≈) assume the structure as drawn. “And” between values parts separate entries of the source, which are not always exact repeats. Equal entries are not always repeated. Structures can show the parent of a compound that is named as a salt.

How the values were obtained:
NA activity = type: biochemical
influenza A PR8 virus [1] = type: cell-based, Influenza A/Puerto Rico/8/34 (H1N1)
recombinant N4 protein = recombinant N4 protein (Influenza A virus, UniProt Q6XV43); assay: biochemical
[2] = molecular target: NA from influenza NC virus (Influenza A virus, UniProt Q7TG96); type: biochemical; conditions: read-out: IC50 NA activity
influenza A NY virus = type: cell-based
[3] = system: influenza A and B viruses; type: cell-based
influenza A or B viruses = type: cell-based
[4] = system: influenza A strains PR8, NY or NC; type: cell-based
NMRI mice = conditions: mouse, in vivo; cited from earlier work
influenza A PR8 virus [5] = assay: microbe, parasite or virus in culture; type: cell-based; conditions: PR8, MDCK, 48 h, read-out: minimum effective dose required to protect 50% of cells (EC50)
influenza A PR8 virus [6] = type: cell-based
mice = conditions: mouse, in vivo; cited from earlier work
influenza A PR8 virus [7] = type: cell-based, Influenza A/Puerto Rico/8/34 (H1N1); remark: listed apart in the source
influenza A NC virus = type: cell-based
hamsters = conditions: hamster, in vivo; cited from earlier work
influenza A PR8 virus [8] = type: cell-based, Influenza A/Puerto Rico/8/34 (H1N1); remark: listed apart in the source
in vitro = conditions: pH 7.2

NC12CC3CC(CC(C3)C1)C2 [AH, amantadine hydrochloride]
inhibition of NA activity (NA activity): no inhibition | Virus yield, Cells (influenza A PR8 virus [1]): 4.7×10^5 PFU/ml | Virus yield, Medium (influenza A PR8 virus [1]): 3×10^5 PFU/ml

O=C(O)C1=CC(=C(c2ccc(O)c(C(=O)O)c2)c2ccc(O)c(C(=O)O)c2)C=CC1=O [ATA, Aurintricarboxylic acid]
IC50 (recombinant N4 protein): 2.37 µM | IC50 [2]: 39.3 µM | reduction of virus abundance in medium (influenza A NY virus): 72% and 81% | plaques after pre-incubation of virus with ATA [3]: reduced the number of plaques | number and size of plaques (influenza A or B viruses): reduced both the number and size of plaques | protection from virus-induced CPE, prophylactic exposure [4]: did not protect cells from virus-induced CPE | protection of infected MDCK cells (neutral red uptake) [4]: significantly protected MDCK cells from influenza infection | LD50 (NMRI mice): 340 mg/kg | median life span (NMRI mice): 18 days | EC50 (influenza A PR8 virus [5]): 6.5 µg/mL (≈ 15.4 µM) | reduction of virus abundance in medium (influenza A PR8 virus [6]): 93% and 95% | single dose tolerated well (mice): ≤ 4 mg/kg | viral NP RNA level (influenza A PR8 virus [7]): substantial reduction in viral NP RNA | reduction of virus abundance in medium (influenza A NC virus): 86% and 94% | well tolerated infusion dose (hamsters): up to 1 mg/kg/hour | Virus yield, Cells (influenza A PR8 virus [1]): 5×10^4 PFU/ml | Virus yield, Medium (influenza A PR8 virus [1]): 1.3×10^4 PFU/ml | magnitude of inhibition, production of infectious viral particles (influenza A PR8 virus [1]): at least 3 logs | viral aggregation by electron microscopy (influenza A PR8 virus [8]): induce viral aggregation on the cell surface | CC50 at 48 h (in vitro): 577 µg/mL (≈ 1370 µM)

N-acetyl-2,3-dehydro-2-deoxyneuraminic acid [NAA]
inhibition of NA activity (NA activity): inhibited NA activity with very low IC50 values | Virus yield, Cells (influenza A PR8 virus [1]): 6.2×10^6 PFU/ml | Virus yield, Medium (influenza A PR8 virus [1]): 4.7×10^6 PFU/ml
